# Experimental data reported in US6670383B2, “Pyranocoumarin compounds as a novel pharmacophore with anti-TB activity” (priority 2001, dated 2003).
# “And” between values parts separate entries of the source, which are not always exact repeats. Equal entries are not always repeated. Where two headings read alike, the source gives them in different places.
# How the values were obtained:
# M. tuberculosis = conditions: first line anti-TB drugs, for comparison; cited from earlier work
# [1] = tested on: M. tuberculosis strain H37Rv; test: MIC against strains of Table 1; assay type: cell-based
# TB = conditions: in vivo; cited from earlier work
# [2] = tested on: M. tuberculosis strain Erdman (TMCC 107/ATCC 35801); test: bone marrow-derived murine macrophage model, BC99; assay type: cell-based
# [3] = tested on: M. tuberculosis strain H37Ra; test: MIC against strains of Table 1; assay type: cell-based
# [4] = IC50 of Table 2 (used for SI = IC50/MIC; test not described)
# [5] = tested on: H37Rv strain of M. tuberculosis; test: BACTEC 460 radiometric system in BACTEC 12B medium: inhibition and MIC; assay type: cell-based; conditions: for % Inhibition: 12.5 μg/mL; for MIC: lowest concentration inhibiting 99% of the inoculum
# M. avium = test: inhibition of M. avium; assay type: cell-based; conditions: 12.5 μg/mL
# Procedure: (§1) For comparison, MICs for the first line anti-TB drugs are 0.025-0.05 μg/mL for isoniazid, 0.005-0.2 μg/mL for rifampin, and 0.4-10 μg/mL for ethambutol. However, in a bone marrow-derived murine macrophage model, the BC 99 value of (+)-calanolide A, a concentration at which 99% of the inoculum of M. tuberculosis is destroyed, was 1.1 μg/mL (3 μM) against strain Erdman (TMCC 107/ATCC 35801) and 1.8 μg/mL (5 μM) against strain CSU 93 (CDC-95-031551), compared to 0.7-0.8 μg/mL (5-6 μM) for the positive control drug isoniazide.
# [6] = tested on: M. tuberculosis strain CSU 93 (CDC-95-031551); test: bone marrow-derived murine macrophage model, BC99; assay type: cell-based; conditions: concentration at which 99% of the inoculum is destroyed
# Procedure: as §1
# [7] = tested on: M. tuberculosis' synthesis of protein, RNA, DNA and lipid; test: incorporation of radiolabeled precursors into mycobacterial macromolecular components; assay type: cell-based
# M. tuberculosis H37Ra [8] = test: colorimetric microdilution broth assay with alamar Blue, initial screen at four log10 dilutions; assay type: cell-based; conditions: Mycobacterium tuberculosis, H37RA, initial screening at 0.128, 1.28, 12.8 and 128 μg/mL, read-out: MIC
# Procedure: The compounds synthesized above were evaluated for activity against M. tuberculosis H37Ra using a colorimetric microdilution broth assay that incorporated the REDOX indicator alamar Blue, which indicates the growth and viability by the metabolic reduction of the dye from blue to red^18.
# In an initial screen, the compounds were assayed in duplicate at four log10 dilutions, with the highest concentration being 128 μg/mL (therefore, tested concentrations were 0.128, 1.28, 12.8, and 128 μg/mL). Each solubilized test compound was diluted in broth medium (Middlebrook 7H9+ADC enrichment+0.2% glycerol) at twice the desired concentration and 0.05 mL of each dilution then added to appropriate wells in duplicate in a 96 well (U-shaped) microtiter plates. A plate format was designed for up to seven (7) compounds per plate. Each plate also included uninoculated drug controls, viability controls, uninoculated medium controls, and positive drug controls. The inoculum for each well consisted of 0.05 mL of culture, standardized as described above to provide an inoculum in each microtiter well of approximately 10^5 CFU/mL. The plates were covered with a lid, placed in polyethylene bags and incubated for at 37° C. for 6 days. At that time, alamar Blue, diluted in Tween 80, was added to each well followed by further incubation for about 20 hours. The plates were read in an optical microplate reader programmed to subtract absorbance at 600 nm from absorbance at 570 nm. This effectively blanked out turbidity and absorbance due to oxidized dye. The amount of dye reduced, resulting in a change from blue to red, is indicative of drug yielding a differential absorption of zero or less.
# M. tuberculosis H37Ra [9] = test: MIC and MBC determination using 2-fold dilutions; assay type: cell-based; conditions: for MBC / MIC: Mycobacterium tuberculosis
# [10] = Mycobacterium tuberculosis, read-out: MIC
molecule,measurement,setting,value
CO[C@H]1/C=C/O[C@@]2(C)Oc3c(C)c(O)c4c(O)c(c(/C=N/N5CCN(C)CC5)c(O)c4c3C2=O)NC(=O)/C(C)=C\C=C\[C@H](C)[C@H](O)[C@@H](C)[C@@H](O)[C@@H](C)[C@H](OC(C)=O)[C@@H]1C [Rifampin],MIC,M. tuberculosis,0.005 to 0.2 µg/mL
same,MIC,[1]; [10],0.016 µg/mL
same,TB relapse rate,TB,5%
NNC(=O)c1ccncc1 [Isoniazid],MIC,M. tuberculosis,0.025 to 0.05 µg/mL
same,BC 99,"[2]; positive control, one range printed for strains Erdman and CSU 93, listed as isoniazide",0.7-0.8 μg/mL and 5-6 μM
same,MIC,[1]; [10],0.031 µg/mL
same,MIC,[3]; [10],0.063 µg/mL
"CCCc1cc(=O)oc2c3c(c4c(c12)OC(C)(C)C=C4)O[C@@H](C)[C@H](C)[C@H]3O [(−)-Calanolide A (2), (−)-Calanolide A]",IC50,[4],>10 µg/mL
same,% Inhibition,[5],98%
same,MIC,[5],6.25 µg/mL
CC[C@@H](CO)NCCN[C@@H](CC)CO [Ethambutol],MIC,M. tuberculosis,0.4 to 10 µg/mL
same,MIC,[1]; [10],2 µg/mL
same,MIC,[3]; [10],4 µg/mL
(+)-Calanolide A [(+)-Calanolide A (1)],IC50,[4],7.60 µg/mL
same,BC 99,"[2]; concentration at which 99% of the inoculum is destroyed, strain Erdman",1.1 μg/mL and 3 μM
same,kind of agent from drug inhibition patterns,[2]; macrophage model,bactericidal agent
same,% Inhibition,M. avium,81%
same,BC 99,[6],1.8 μg/mL and 5 μM
same,MIC,[1],8 µg/mL
same,"inhibition of RNA synthesis, extent and time frame",[7],very similar to the positive control rifampin
same,inhibition of protein synthesis,[7],32%
same,inhibition of lipid synthesis,"[7]; […], 12-hour time point, DMSO alone 51%",99%
same,inhibition of DNA synthesis,"[7]; […], period of 3 hours, DMSO alone 24%",Approximately 77%
same,% Inhibition,[5],96%
same,% Inhibition,[5]; listed as (+)-calanolide A,greater than 96%
same,MIC,[5],3.13 µg/mL
same,MIC,[5]; listed as (+)-calanolide A,3.13 μg/mL and 8 μM
same,MIC,[3],16 µg/mL
CO[C@H]1/C=C/O[C@@]2(C)Oc3c(C)c(O)c4c(O)c(c(/C=N/N5CCN(C6CCCC6)CC5)c(O)c4c3C2=O)NC(=O)/C(C)=C\C=C\[C@H](C)[C@H](O)[C@@H](C)[C@@H](O)[C@@H](C)[C@H](OC(C)=O)[C@@H]1C [rifapentine],TB relapse rate,TB,10%
"CCCc1cc(=O)oc2c(C(N)CC)c(OCCO)c3c(c12)OC(C)(C)C=C3 (centres unmarked) [Compound 45e, 6-(1-Aminopropyl)-5-(2-hydroxyethoxy)-2,2-dimethyl-10-propyl-2H-pyrano[2,3-f]chromen-8-one]",MIC,M. tuberculosis H37Ra [8],1.28 to 12.8 µg/mL
same,effect on M. tuberculosis,M. tuberculosis H37Ra [9],bactericidal
same,MBC,M. tuberculosis H37Ra [9]; H37RA,32 µg/mL
same,MIC,M. tuberculosis H37Ra [9]; H37RA,16 µg/mL
"CCCc1cc(=O)oc2c(C(=O)CC)c(OC)c3c(c12)OC(C)(C)CC3 [Compound 44b, 5-Methoxy-2,2-dimethyl-6-propionyl-10-propyl-3,4-dihydro-2H-pyrano[2,3-f]chromen-8-one]",MIC,M. tuberculosis H37Ra [8],1.28 to 12.8 µg/mL
same,MIC,"M. tuberculosis H37Ra [9]; 2-fold dilutions, lowest concentration that completely inhibits growth, H37Ra, read-out: MIC",16 µg/mL
same,MBC,"M. tuberculosis H37Ra [9]; minimum bactericidal concentration, H37Ra, read-out: MBC",> 64 µg/mL
[H]/N=C(/N)N[C@H]1[C@H](O)[C@@H](O)[C@H](O[C@@H]2O[C@@H](C)[C@](O)(C=O)[C@H]2O[C@@H]2O[C@@H](CO)[C@H](O)[C@@H](O)[C@@H]2NC)[C@@H](N/C(N)=N\[H])[C@@H]1O [Streptomycin],MIC,[1]; [10],0.25 µg/mL
same,inhibition of protein synthesis,"[7]; positive control, at 5 hours",43%
